In US4309437A, “Pyrrolo-benzodiazepine compounds and anti-tumor composition thereof” (priority 1979, dated 1982):
Counter-ions that a name gives are not always drawn.

Key:
[1] = Toxicity test (LD50, intraperitoneal, mice); assay type: in vivo, mouse; details: mouse, in vivo, ip, dd-strain male mice, 18 to 21 g, 3 weeks observation, Probit analysis
Procedure: (§1) Toxicity test: The compound being tested is suspended in physiological saline in varied concentrations by the serial dilution method (common ratio, 1:1.5). Each solution was administered intraperitoneally to groups of 8 to 12 dd-strain male mice, each 18 to 21 g in body weight. The mice were then bred on a usual diet and water. The LD50 value was determined by Probit analysis by observing dead and alive for 3 weeks after the administration.

[2] = known, in words; cited from earlier work
[3] = known, in words; cited from earlier work; remark: listed apart in the source
[4] = said to be exhibited due to side effects; cited from earlier work
dd-strain male mice = experiment: Toxicity test (LD50, intraperitoneal, mice); assay type: in vivo, mouse; details: 18 to 21 g, 3 weeks observation, Probit analysis, 30240 min
Procedure: as §1

Question: Which LD50 at 504 h [1] does the source give for `Cc1ccc2c(c1OC(N)=O)NC(S(=O)O)C1CC(/C=C/C(N)=O)=CN1C2=O` (stereo not shown) [R1=CONH2, R2=H, R3=SO2 H, 5,10,11,11a-Tetrahydro-9-carbamyloxy-8-methyl-5-oxo-11-sulfino-1H-pyrrolo[2,1-c][1,4]benzodiazepin-2-acrylamide] here?
Answer: 2.37 mg/kg

Question: With `CC(=O)N1c2c(ccc(C)c2OC(N)=O)C(=O)N2C=C(/C=C/C(N)=O)CC2C1S(=O)O` (stereo not shown) [R1=CONH2, R2=COCH3, R3=SO2 H, 5,10,11,11a-tetrahydro-10-acetyl-9-carbamyloxy-8-methyl-5-oxo-11-sulfino-1H-pyrrolo[2,1-c][1,4]benzodiazepin-2-acrylamide] as the molecule, how does the LD50 at 504 h [1] read?
Answer: 2.84 mg/kg

Question: For `Cc1ccc2c(c1O)NC(O)C1CC(/C=C/C(N)=O)=CN1C2=O` (single isomer, unassigned) [PBA, 5,10,11,11a-tetrahydro-9,11-dihydroxy-8-methyl-5-oxo-1H-pyrrolo[2,1-c][1,4]-benzodiazepin-2-acrylamide], which antitumor activity [2] is on record?
Answer: very strong antitumor activity

Question: And the antibacterial activity [3]?
Answer: antibacterial and antitumor activities are exhibited

Question: What about the “toxicity, particularly cardiotoxicity” value [4] of the same molecule?
Answer: strong toxicity, particularly cardiotoxicity

Question: And the LD50 at 504 h [1]?
Answer: 0.73 mg/kg

Question: With `Cc1ccc2c(c1O)NC(S(=O)O)C1CC(/C=C/C(N)=O)=CN1C2=O` (stereo not shown) [R1=H, R2=H, R3=SO2 Na] as the molecule, how does the LD50 (dd-strain male mice) read?
Answer: 2.28 mg/kg

Question: For `COC(=O)Oc1c(C)ccc2c1NC(S(=O)(=O)O)C1CC(/C=C/C(N)=O)=CN1C2=O` (stereo not shown) [R1=COOCH3, R2=H, R3=SO3 H, 5,10,11,11a-tetrahydro-8-methyl-9-methoxycarbonyloxy-5-oxo-11-sulfo-1H-pyrrolo[2,1-c][1,4]-benzodiazepin-2-acrylamide], which LD50 at 504 h [1] is on record?
Answer: 2.55 mg/kg

Question: With `CC(=O)N1c2c(ccc(C)c2O)C(=O)N2C=C(/C=C/C(N)=O)CC2C1S(=O)O` (stereo not shown) [R1=H, R2=COCH3, R3=SO2 H, 5,10,11,11a-tetrahydro-10-acetyl-9-hydroxy-8-methyl-5-oxo-11-sulfino-1H-pyrrolo-[2,1-c][1,4]benzodiazepin-2-acrylamide] as the molecule, how does the LD50 at 504 h [1] read?
Answer: 2.5 mg/kg

Question: Which LD50 (dd-strain male mice) does the source give for `CC(=O)Oc1c(C)ccc2c1N(C(C)=O)C(S(=O)(=O)O)C1CC(/C=C/C(N)=O)=CN1C2=O` (stereo not shown) [R1=COCH3, R2=COCH3, R3=SO3 H, 5,10,11,11a-Tetrahydro-9-acetoxy-10-acetyl-8-methyl-5-oxo-11-sulfo-1H-pyrrolo[2,1-c][1,4]benzodiazepin-2-acrylamide] here?
Answer: 2.81 mg/kg

Question: For `CC(=O)Oc1c(C)ccc2c1NC(S(=O)O)C1CC(/C=C/C(N)=O)=CN1C2=O` (stereo not shown) [R1=COCH3, R2=H, R3=SO2 Na, 5,10,11,11a-tetrahydro-9-acetoxy-8-methyl-5-oxo-11-sulfino-1H-pyrrolo[2,1-c][1,4]benzodiazepin-2-acrylamide sodium salt], which LD50 (dd-strain male mice; sodium salt) is on record?
Answer: 2.60 mg/kg

Question: With `CC(=O)Oc1c(C)ccc2c1N(C(C)=O)C(S(=O)O)C1CC(/C=C/C(N)=O)=CN1C2=O` (stereo not shown) [R1=COCH3, R2=COCH3, R3=SO2 Na] as the molecule, how does the LD50 at 504 h [1] read?
Answer: 2.71 mg/kg

Question: With `CC(=O)Oc1c(C)ccc2c1NC(S(=O)(=O)O)C1CC(/C=C/C(N)=O)=CN1C2=O` (stereo not shown) [R1=COCH3, R2=H, R3=SO3 H, 5,10,11,11a-tetrahydro-9-acetoxy-8-methyl-5-oxo-11-sulfo-1H-pyrrolo[2,1-c][1,4]benzodiazepin-2-acrylamide] as the molecule, how does the LD50 at 504 h [1] read?
Answer: 2.68 mg/kg

Question: Which LD50 at 504 h [1] does the source give for `Cc1ccc2c(c1O)NC(S(=O)(=O)O)C1CC(/C=C/C(N)=O)=CN1C2=O` (stereo not shown) [R1=H, R2=H, R3=SO3 H, 5,10,11,11a-Tetrahydro-9-hydroxy-8-methyl-5-oxo-11-sulfo-1H-pyrrolo[2,1-c][1,4]benzodiazepin-2-acrylamide] here?
Answer: 2.21 mg/kg

Question: Which LD50 at 504 h [1] does the source give for `COC(=O)Oc1c(C)ccc2c1NC(S(=O)O)C1CC(/C=C/C(N)=O)=CN1C2=O` (stereo not shown) [R1=COOCH3, R2=H, R3=SO2 H] here?
Answer: 2.56 mg/kg

Question: For `Cc1ccc2c(c1O)NC(S(=O)O)C1CC(/C=C/C(N)=O)=CN1C2=O` (stereo not shown) [R1=H, R2=H, R3=SO2 K], which LD50 (dd-strain male mice) is on record?
Answer: 2.31 mg/kg

Question: Which LD50 at 504 h [1] does the source give for `CC(=O)N1c2c(ccc(C)c2O)C(=O)N2C=C(/C=C/C(N)=O)CC2C1S(=O)(=O)O` (stereo not shown) [R1=H, R2=COCH3, R3=SO3 Na, 5,10,11,11a-tetrahydro-10-acetyl-9-hydroxy-8-methyl-5-oxo-11-sulfo-1H-pyrrolo[2,1-c][1,4]benzodiazepin-2-acrylamide sodium salt] here?
Answer: 2.51 mg/kg

Question: For `CC(=O)Oc1c(C)ccc2c1N(C(C)=O)C(S(=O)O)C1CC(/C=C/C(N)=O)=CN1C2=O` (stereo not shown) [R1=COCH3, R2=COCH3, R3=SO2 H, 5,10,11,11a-tetrahydro-9-acetoxy-10-acetyl-8-methyl-5-oxo-11-sulfino-1H-pyrrolo-[2,1-c][1,4]benzodiazepin-2-acrylamide], which LD50 (dd-strain male mice) is on record?
Answer: 2.62 mg/kg

Question: For `Cc1ccc2c(c1OC(N)=O)NC(S(=O)(=O)O)C1CC(/C=C/C(N)=O)=CN1C2=O` (stereo not shown) [R1=CONH2, R2=H, R3=SO3 H, 5,10,11,11a-Tetrahydro-9-carbamyloxy-8-methyl-5-oxo-11-sulfo-1H-pyrrolo[2,1-c][1,4]benzodiazepin-2-acrylamide], which LD50 at 504 h [1] is on record?
Answer: 2.4 mg/kg

Question: For `CC(=O)N1c2c(ccc(C)c2O)C(=O)N2C=C(/C=C/C(N)=O)CC2C1S(=O)(=O)O` (stereo not shown) [R1=H, R2=COCH3, R3=SO3 H, 5,10,11,11a-Tetrahydro-10-acetyl-9-hydroxy-8-methyl-5-oxo-11-sulfo-1H-pyrrolo[2,1-c][1,4]benzodiazepin-2-acrylamine], which LD50 (dd-strain male mice) is on record?
Answer: 2.43 mg/kg

Question: What does the source list for `Cc1ccc2c(c1O)N=CC1CC(/C=C/C(N)=O)=CN1C2=O` (stereo not shown) [P'B'A', 5,11,11a-trihydro-9-hydroxy-8-methyl-5-oxo-1H-pyrrolo-[2,1-c][1,4]benzodiazepin-2-acrylamide]?
Answer: antitumor activity [2]: very strong antitumor activity; antibacterial activity [3]: antibacterial and antitumor activities are exhibited; toxicity, particularly cardiotoxicity [4]: strong toxicity, particularly cardiotoxicity

Question: With `Cc1ccc2c(c1O)NC(S(=O)O)C1CC(/C=C/C(N)=O)=CN1C2=O` (stereo not shown) [R1=H, R2=H, R3=SO2 H, 5,10,11,11a-tetrahydro-9-hydroxy-8-methyl-5-oxo-11-sulfino-1H-pyrrolo[2,1-c][1,4]-benzodiazepin-2-acrylamide] as the molecule, how does the LD50 at 504 h [1] read?
Answer: 2.18 mg/kg

Question: With `Cc1ccc2c(c1O)NC(S(=O)(=O)O)C1CC(/C=C/C(N)=O)=CN1C2=O` (stereo not shown) [R1=H, R2=H, R3=SO3 Na] as the molecule, how does the LD50 (dd-strain male mice) read?
Answer: 2.31 mg/kg

Question: Which LD50 at 504 h [1] does the source give for `CC(=O)Oc1c(C)ccc2c1N(C(C)=O)C(S(=O)(=O)O)C1CC(/C=C/C(N)=O)=CN1C2=O` (stereo not shown) [R1=COCH3, R2=COCH3, R3=SO3 Na] here?
Answer: 3.04 mg/kg

Question: Which LD50 at 504 h [1] does the source give for `CC(=O)N1c2c(ccc(C)c2OC(N)=O)C(=O)N2C=C(/C=C/C(N)=O)CC2C1S(=O)(=O)O` (stereo not shown) [R1=CONH2, R2=COCH3, R3=SO3 H, 5,10,11,11a-Tetrahydro-10-acetyl-9-carbamyloxy-8-methyl-5-oxo-11-sulfo-1H-pyrrolo[2,1-c][1,4]benzodiazepin-2-acrylamide] here?
Answer: 2.8 mg/kg

Question: For `CC(=O)Oc1c(C)ccc2c1NC(S(=O)O)C1CC(/C=C/C(N)=O)=CN1C2=O` (stereo not shown) [R1=COCH3, R2=H, R3=SO2 H, 5,10,11,11a-Tetrahydro-9-acetoxy-8-methyl-5-oxo-11-sulfino-1H-pyrrolo[2,1-c][1,4]benzodiazepin-2-acrylamide], which LD50 at 504 h [1] is on record?
Answer: 2.54 mg/kg

Question: Which results are given for `COC1Nc2c(ccc(C)c2O)C(=O)N2C=C(/C=C/C(N)=O)CC12` (single isomer, unassigned) [P"B"A"]?
Answer: antitumor activity [2]: very strong antitumor activity; antibacterial activity [3]: antibacterial and antitumor activities are exhibited; toxicity, particularly cardiotoxicity [4]: strong toxicity, particularly cardiotoxicity
